Where two headings read alike, the source gives them in different places.
Key:
CFTR [1] = target: T1, CFTR (Homo sapiens, UniProt P13569, DEL508-508); assay: HBE2 assay: Ussing chamber assay of CFTR-mediated short-circuit currents; format: cell-based; conditions: F508del/MF-HBE cells, with 44 nM potentiator, 18-24 hours, 20% human serum; for Emax: read-out: HBE2 Max activity (%)
T1 construct: endogenous in cells; host or cells: primary human bronchial epithelial cells from CF subjects (F508del/MF-HBE), differentiated at air-liquid interface
Method: Ussing Chamber Assay of CFTR-Mediated Short-Circuit Currents
After four days the apical media was removed, and the cells were grown at an air liquid interface for >14 days prior to use.
To isolate the CFTR-mediated short-circuit (ISC) current, F508del/MF-HBE grown on Costar® Snapwell™ cell culture inserts were mounted in an Ussing chamber and the transepithelial ISC was measured under voltage-clamp recording conditions (Vhold=0 mV) at 37° C. […] The CFTR-mediated ISC (μA/cm^2) for each condition was determined from the peak forskolin response to the steady-state current following inhibition.
Identification of Corrector Compounds
The activity of the CFTR corrector compounds on the CFTR-mediated ISC was determined in Ussing chamber studies as described above.

CFTR [2] = target: T1, CFTR; assay: HBE assay: Ussing chamber assay of CFTR-mediated short-circuit currents; format: cell-based; conditions: for Emax: read-out: HBE Max activity (%); for activation at 10 µM: read-out: HBE Activity at 10 μM (%)
Outline: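 CFTR-mediated Isc (μA/cm²) equals the peak response to apical 20 μM forskolin minus the residual after a 20 μM each BPO/GlyH-101/CFTR inhibitor 172 cocktail, recorded in Ussing chambers at Vhold 0 mV, 37 °C, pH 7.4, with 30 μM apical amiloride. Cells were F508del/MF HBE cultures preincubated 18-24 h with corrector (concentration range or 10 μM) plus 1 μM ivacaftor in 20% human serum.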

T1 sequence (P13569 with tags, fused parts or gaps DEL508-508): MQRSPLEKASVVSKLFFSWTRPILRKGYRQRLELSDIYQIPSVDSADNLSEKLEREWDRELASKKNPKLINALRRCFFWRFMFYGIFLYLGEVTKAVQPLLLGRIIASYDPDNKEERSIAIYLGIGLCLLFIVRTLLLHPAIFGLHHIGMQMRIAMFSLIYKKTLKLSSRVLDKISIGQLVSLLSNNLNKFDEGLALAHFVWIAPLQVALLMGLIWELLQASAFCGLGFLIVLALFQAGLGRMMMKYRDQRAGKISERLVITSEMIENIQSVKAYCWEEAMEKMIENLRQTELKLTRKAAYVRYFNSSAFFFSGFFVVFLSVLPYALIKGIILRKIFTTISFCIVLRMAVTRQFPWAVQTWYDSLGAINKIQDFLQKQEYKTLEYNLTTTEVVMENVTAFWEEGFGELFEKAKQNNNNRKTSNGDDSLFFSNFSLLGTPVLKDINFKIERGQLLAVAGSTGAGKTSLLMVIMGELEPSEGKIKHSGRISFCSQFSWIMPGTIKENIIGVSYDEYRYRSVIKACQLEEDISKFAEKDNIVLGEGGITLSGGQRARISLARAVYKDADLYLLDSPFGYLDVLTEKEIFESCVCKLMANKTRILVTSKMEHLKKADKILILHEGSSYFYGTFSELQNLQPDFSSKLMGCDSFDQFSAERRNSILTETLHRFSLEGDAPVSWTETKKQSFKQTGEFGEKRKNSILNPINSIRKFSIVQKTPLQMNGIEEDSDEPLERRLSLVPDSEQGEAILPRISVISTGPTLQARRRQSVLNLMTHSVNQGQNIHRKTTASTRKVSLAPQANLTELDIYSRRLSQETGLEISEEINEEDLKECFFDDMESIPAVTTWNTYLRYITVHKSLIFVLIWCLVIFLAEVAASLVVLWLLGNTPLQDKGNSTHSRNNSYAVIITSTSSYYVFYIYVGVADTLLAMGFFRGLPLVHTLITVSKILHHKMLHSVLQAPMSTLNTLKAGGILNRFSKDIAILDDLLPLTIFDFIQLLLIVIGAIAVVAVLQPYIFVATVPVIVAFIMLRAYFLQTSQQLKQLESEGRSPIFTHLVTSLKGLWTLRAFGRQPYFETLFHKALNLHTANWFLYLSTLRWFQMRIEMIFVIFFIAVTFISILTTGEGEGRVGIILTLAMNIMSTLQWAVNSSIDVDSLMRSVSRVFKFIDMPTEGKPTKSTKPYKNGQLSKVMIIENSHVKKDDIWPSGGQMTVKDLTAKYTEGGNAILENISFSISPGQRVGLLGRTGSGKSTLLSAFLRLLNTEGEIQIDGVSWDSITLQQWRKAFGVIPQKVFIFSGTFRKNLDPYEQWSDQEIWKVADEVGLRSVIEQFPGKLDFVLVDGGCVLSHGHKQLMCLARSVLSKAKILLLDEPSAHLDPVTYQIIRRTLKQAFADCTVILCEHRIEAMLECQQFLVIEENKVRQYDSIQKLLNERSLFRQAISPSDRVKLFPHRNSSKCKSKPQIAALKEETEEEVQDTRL

Cc1cccc(C)c1-c1cc2nc(n1)NS(=N)(=O)c1cccc(c1)C(=O)N(Cc1ncc(N3CC(C)(C)C3)cn1)[C@H](CC(C)(C)C)CO2 (single isomer, unassigned) [Compound 1312]
HBE2 Activity at 3 μM (%) (CFTR [1]): ++ (++ is 30-60%)

Cc1cccc(C)c1-c1cc2nc(n1)NS(=N)(=O)c1cccc(c1)C(=O)N(Cc1ncc(N3CC(C)(C)C3)cn1)[C@H](CC(C)(C)C)CO2 (single isomer, unassigned) [Compound 1313]
HBE2 Activity at 3 μM (%) (CFTR [1]): +++ (+++ is >60+)

Cc1cccc(C)c1-c1cc2nc(n1)NS(=O)(=O)c1cccc(c1)C(=O)N(Cc1cncc(N3CC[C@@H]4CC[C@@H]43)n1)[C@H](CC(C)(C)C)CO2 (single isomer, unassigned) [Compound 1314]
HBE2 Activity at 3 μM (%) (CFTR [1]): +++ (+++ is >60+)

Cc1cccc(C)c1-c1cc2nc(n1)NS(=O)(=O)c1cccc(c1)C(=O)N(Cc1cncc(N3CCC[C@H]4CC[C@H]43)n1)[C@H](CC(C)(C)C)CO2 (single isomer, unassigned) [Compound 1315]
HBE2 Activity at 3 μM (%) (CFTR [1]): +++ (+++ is >60+) | EC50 (CFTR [1]): < 1000 nM | Emax (CFTR [1]): > 60%

Cc1cccc(C)c1-c1cc2nc(n1)NS(=O)(=O)c1cccc(c1)C(=O)N(Cc1cncc(N3CCC[C@H]4CC[C@H]43)n1)[C@H](CC(C)(C)C)CO2 (single isomer, unassigned) [Compound 1316]
HBE2 Activity at 3 μM (%) (CFTR [1]): +++ (+++ is >60+)

Cc1cccc(C)c1-c1cc2nc(n1)NS(=O)(=O)c1cccc(c1)C(=O)N(Cc1cncc(N(C)C3CCC3)n1)[C@H](C1CC3(CCC3)C1)CO2 (single isomer, unassigned) [Compound 1320, 12-[[6-[Cyclobutyl(methyl)amino]pyrazin-2-yl]methyl]-6-(2,6-dimethylphenyl)-2,2-dioxo-11-spiro[3.3]heptan-2-yl-9-oxa-2λ^6-thia-3,5,12,19-tetrazatricyclo[12.3.1.14,8]nonadeca-1(18),4(19),5,7,14,16-hexaen-13-one]
HBE2 Activity at 3 μM (%) (CFTR [1]): +++ (+++ is >60+) | EC50 (CFTR [1]): < 1000 nM | Emax (CFTR [1]): > 60%

CCOc1cnc(CN2C(=O)c3cccc(c3)S(=O)(=O)Nc3nc(cc(-c4c(C)cccc4C)n3)OC[C@H]2CC(C)(C)C(F)(F)F)nc1 [Compound 1489]
EC50 (CFTR [2]; HBE assay, read-out: HBE EC50): < 1 µM | Emax (CFTR [2]; HBE assay): > 60%

CCOc1cnc(CN2C(=O)c3cccc(c3)S(=O)(=O)Nc3nc(cc(-c4c(C)cccc4C)n3)OC[C@H]2CC2(C(F)(F)F)CC2)nc1 [Compound 1490]
EC50 (CFTR [2]; HBE assay, read-out: HBE EC50): < 1 µM | Emax (CFTR [2]; HBE assay): > 60%

COC(C)(C)CN(C)c1cncc(CN2C(=O)c3cccc(c3)S(=O)(=O)Nc3nc(cc(-c4c(C)cccc4C)n3)OC[C@H]2CC(C)(C)C)n1 [Compound 1491]
EC50 (CFTR [2]; HBE assay, read-out: HBE EC50): < 1 µM | Emax (CFTR [2]; HBE assay): > 60%

Cc1cccc(C)c1-c1cc2nc(n1)NS(=O)(=O)c1cccc(c1)C(=O)N(Cc1cncc(N3CCC[C@H]3COC(C)C)n1)[C@H](CC(C)(C)C)CO2 [Compound 1494]
EC50 (CFTR [2]; HBE assay, read-out: HBE EC50): < 1 µM | Emax (CFTR [2]; HBE assay): > 60%

Cc1cccc(C)c1-c1cc2nc(n1)NS(=O)(=O)c1cccc(c1)C(=O)N(Cc1cccc(N3CCC[C@H]3C3CC3)n1)[C@H](CC(C)(C)C)CO2 [Compound 1497]
EC50 (CFTR [2]; HBE EC50 (μM), HBE assay): < 1 µM | Emax (CFTR [2]): > 60%

Cc1cccc(C)c1-c1cc2nc(n1)NS(=O)(=O)c1cccc(c1)C(=O)N(Cc1ncc(N3CC(F)C3)cn1)[C@H](CC(C)(C)C)CO2 [Compound 1498]
activation at 10 µM (CFTR [2]; HBE assay, 10 μM): > 60%

Cc1cccc(C)c1-c1cc2nc(n1)NS(=O)(=O)c1cccc(c1)C(=O)N(Cc1cncc(N3CCC[C@H]3C(C)C)n1)[C@H](CC1CC1)CO2 [Compound 1499]
activation at 10 µM (CFTR [2]; HBE assay, 10 μM): > 60% | EC50 (CFTR [2]; HBE assay, read-out: HBE EC50): < 1 µM | Emax (CFTR [2]; HBE assay): > 60%

Cc1cccc(C)c1-c1cc2nc(n1)NS(=O)(=O)c1cccc(c1)C(=O)N(Cc1ncc(N3CC(F)(F)C(F)(F)C3)cn1)[C@H](CC(C)(C)C)CO2 [Compound 1500]
activation at 10 µM (CFTR [2]; HBE assay, 10 μM): > 60%

Cc1cccc(C)c1-c1cc2nc(n1)NS(=O)(=O)c1cccc(c1)C(=O)N(Cc1cccc(N3CCC[C@H]3C3CC3)n1)[C@H](CC1CC1)CO2 [Compound 1501]
activation at 10 µM (CFTR [2]; HBE assay, 10 μM): > 60%

Cc1cccc(C)c1-c1cc2nc(n1)NS(=O)(=O)c1cccc(c1)C(=O)N(Cc1cncc(N3CCC[C@H]3C3CC3)n1)[C@H](CC1CC1)CO2 [Compound 1502]
EC50 (CFTR [2]; HBE EC50 (μM), HBE assay): < 1 µM | activation at 10 µM (CFTR [2]): > 60% | Emax (CFTR [2]): > 60%

Cc1cccc(C)c1-c1cc2nc(n1)NS(=O)(=O)c1cccc(c1)C(=O)N(Cc1ncc(N3CC(C)(F)C3)cn1)[C@H](CC(C)(C)C)CO2 [Compound 1503]
activation at 10 µM (CFTR [2]; HBE assay, 10 μM): > 60% | EC50 (CFTR [2]; HBE assay, read-out: HBE EC50): < 1 µM | Emax (CFTR [2]; HBE assay): > 60%

Cc1cccc(C)c1-c1cc2nc(n1)NS(=O)(=O)c1cccc(c1)C(=O)N(Cc1ncc(N3CCC4(CC4)C3)cn1)[C@H](CC(C)(C)C)CO2 [Compound 1504]
activation at 10 µM (CFTR [2]; HBE assay, 10 μM): > 60%

Cc1cccc(C)c1-c1cc2nc(n1)NS(=O)(=O)c1cccc(c1)C(=O)N(Cc1ncc(N3CC(C)(C)C3)cn1)[C@H](CC1CC1)CO2 [Compound 1505]
activation at 10 µM (CFTR [2]; HBE assay, 10 μM): > 60% | EC50 (CFTR [2]; HBE assay, read-out: HBE EC50): < 1 µM | Emax (CFTR [2]; HBE assay): > 60%

COCCN(c1cccc(CN2C(=O)c3cccc(c3)S(=O)(=O)Nc3nc(cc(-c4c(C)cccc4C)n3)OC[C@H]2CC(C)(C)F)n1)C(C)C [Compound 1508]
activation at 10 µM (CFTR [2]; HBE assay, 10 μM): > 60%

Cc1cccc(C)c1-c1cc2nc(n1)NS(=O)(=O)c1cccc(c1)C(=O)N(Cc1ncc(OC3CCC3)cn1)[C@H](CC(C)(C)F)CO2 [Compound 1509]
activation at 10 µM (CFTR [2]; HBE assay, 10 μM): > 60%

COC[C@@]1(C)CCCN1c1cccc(CN2C(=O)c3cccc(c3)S(=O)(=O)Nc3nc(cc(-c4c(C)cccc4C)n3)OC[C@H]2CC(C)(C)C)n1 [Compound 1510]
activation at 10 µM (CFTR [2]; HBE assay, 10 μM): > 60%

COC[C@]1(C)CCCN1c1cccc(CN2C(=O)c3cccc(c3)S(=O)(=O)Nc3nc(cc(-c4c(C)cccc4C)n3)OC[C@H]2CC(C)(C)C)n1 [Compound 1511]
activation at 10 µM (CFTR [2]; HBE assay, 10 μM): > 60%

CC(=O)Nc1cnc(CN2C(=O)c3cccc(c3)S(=O)(=O)Nc3nc(cc(-c4c(C)cccc4C)n3)OC[C@H]2CC(C)(C)C)nc1 [Compound 1513]
activation at 10 µM (CFTR [2]; HBE assay, 10 μM): > 60%

COC(=O)Nc1cnc(CN2C(=O)c3cccc(c3)S(=O)(=O)Nc3nc(cc(-c4c(C)cccc4C)n3)OC[C@H]2CC(C)(C)C)nc1 [Compound 1514]
activation at 10 µM (CFTR [2]; HBE assay, 10 μM): > 60%

Cc1cccc(C)c1-c1cc2nc(n1)NS(=O)(=O)c1cccc(c1)C(=O)N(Cc1ncc(NC(=O)OC(C)C)cn1)[C@H](CC(C)(C)C)CO2 [Compound 1515]
activation at 10 µM (CFTR [2]; HBE assay, 10 μM): > 60%

CC(=O)N(C)c1cnc(CN2C(=O)c3cccc(c3)S(=O)(=O)Nc3nc(cc(-c4c(C)cccc4C)n3)OC[C@H]2CC(C)(C)C)nc1 [Compound 1516]
activation at 10 µM (CFTR [2]; HBE assay, 10 μM): > 60%

CCCOc1cnc(CN2C(=O)c3cccc(c3)S(=O)(=O)Nc3nc(cc(-c4c(C)cccc4C)n3)OC[C@H]2CC(C)(C)C)nc1 [Compound 1521]
activation at 10 µM (CFTR [2]; HBE assay, 10 μM): > 60%

CCOc1cnc(CN2C(=O)c3cccc(c3)S(=O)(=O)Nc3nc(cc(-c4c(C)cccc4C)n3)OC[C@H]2CC2(C)CC2)nc1 [Compound 1524]
activation at 10 µM (CFTR [2]; HBE assay, 10 μM): > 60%

Cc1cccc(C)c1-c1cc2nc(n1)NS(=O)(=O)c1cccc(c1)C(=O)N(Cc1ncc(N3CC(C)(C)C3)cn1)[C@H](CCC(C)(C)C)CO2 [Compound 1525]
activation at 10 µM (CFTR [2]; HBE assay, 10 μM): > 60%

COCC(COC)N(C)c1cncc(CN2C(=O)c3cccc(c3)S(=O)(=O)Nc3nc(cc(-c4c(C)cccc4C)n3)OC[C@H]2CC(C)(C)C)n1 [Compound 1531]
activation at 10 µM (CFTR [2]; HBE assay, 10 μM): > 60%

Cc1cccc(C)c1-c1cc2nc(n1)NS(=O)(=O)c1cccc(c1)C(=O)N(Cc1cncc(N3CCCC[C@H]3C3CC3)n1)[C@H](CC(C)(C)C)CO2 [Compound 1532]
activation at 10 µM (CFTR [2]): > 60%

Cc1cccc(C)c1-c1cc2nc(n1)NS(=O)(=O)c1cccc(c1)C(=O)N(Cc1cncc(N3CCCC[C@@H]3C3CC3)n1)[C@H](CC(C)(C)C)CO2 [Compound 1533]
activation at 10 µM (CFTR [2]): > 60%

Cc1cccc(C)c1-c1cc2nc(n1)NS(=O)(=O)c1cccc(c1)C(=O)N(Cc1cncc(N3CCC[C@@H]3C3CCOCC3)n1)[C@H](CC(C)(C)C)CO2 [Compound 1534]
activation at 10 µM (CFTR [2]; HBE assay, 10 μM): > 60%

COC[C@H]1CCCCN1c1cncc(CN2C(=O)c3cccc(c3)S(=O)(=O)Nc3nc(cc(-c4c(C)cccc4C)n3)OC[C@H]2CC(C)(C)C)n1 [Compound 1538]
activation at 10 µM (CFTR [2]): > 60%

Cc1cccc(C)c1-c1cc2nc(n1)NS(=O)(=O)c1cccc(c1)C(=O)N(Cc1cncc(N3CC[C@@H]4COC[C@@H]43)n1)[C@H](CC(C)(C)C)CO2 [Compound 1540]
activation at 10 µM (CFTR [2]; HBE assay, 10 μM): > 60%

Cc1cccc(C)c1-c1cc2nc(n1)NS(=O)(=O)c1cccc(c1)C(=O)N(Cc1cncc(N3CC[C@@H]4CCC[C@@H]43)n1)[C@H](CC(C)(C)C)CO2 [Compound 1542]
activation at 10 µM (CFTR [2]; HBE assay, 10 μM): > 60%

— patent US20240150377A1, “MODULATORS OF CYSTIC FIBROSIS TRANSMEMBRANE CONDUCTANCE REGULATOR” (VERTEX PHARMACEUTICALS INCORPORATED, priority 2020, published 2024)
